This is an account of results in US9295626B2, “Compositions comprising isosorbide monoester and N-hydroxypyridones” (Clariant International Ltd., priority 2011, dated 2016).

The subject of assay [1] is bacteria, fungi and yeasts. Briefly: Antimicrobial activity overall. Format: cell-based. The source says: Below, the antimicrobial efficacy of a composition according to the invention consisting of 50% by weight of isorbide caprylate 1 and 50% by weight of a 10% by weight strength solution of the monoethanolamine salt of 4-methyl-6-(2,4,4-trimethylpentyl)-1-hydroxy-2-pyridone (Octopirox®, 100% by weight strength, Clariant) in butyl polyglycol against bacteria, fungi and yeasts is examined (hereinbelow, the composition is referred to as “composition A”). For the tests with bacteria, composition A was diluted with butyl polyglycol and then, at 50° C., added to liquid CASO agar (casein-peptone agar) buffered to pH 7 (+/−0.2) in various concentrations (hereinbelow referred to as compositions B1, B2, etc.). […]
The minimum inhibitory concentrations for the pure substances isosorbide caprylate 1 and Octopirox® were determined analogously. […]
(§1) Analogously to the determination of the antimicrobial activity according to the above example B), the antimicrobial activity of a mixture comprising, firstly, 89.6% by weight of isosorbide dicaprylate and 9.4% by weight of isosorbide monocaprylate (remainder: 1% by weight) (hereinbelow referred to as “isosorbide dicaprylate”) and, secondly, pure isosorbide was determined in further test series.

The subject of assay [2] is bacteria, fungi and yeasts. The note with it: general statement, no test described, cited from earlier work.
For assay [3], the system named is Aspergillus brasiliensis. Description: Antimicrobial efficacy, MIC by agar dilution. Format: cell-based. Conditions: Sabouraud 4% dextrose agar pH 5.6.
Text: (§2) Below, the antimicrobial efficacy of a composition according to the invention consisting of 50% by weight of isorbide caprylate 1 and 50% by weight of a 10% by weight strength solution of the monoethanolamine salt of 4-methyl-6-(2,4,4-trimethylpentyl)-1-hydroxy-2-pyridone (Octopirox®, 100% by weight strength, Clariant) in butyl polyglycol against bacteria, fungi and yeasts is examined (hereinbelow, the composition is referred to as “composition A”). For the tests with bacteria, composition A was diluted with butyl polyglycol and then, at 50° C., added to liquid CASO agar (casein-peptone agar) buffered to pH 7 (+/−0.2) in various concentrations (hereinbelow referred to as compositions B1, B2, etc.). For the tests with fungi and yeasts, composition A was diluted with butyl polyglycol and then added to liquid Sabouraud 4% dextrose agar buffered to pH 5.6 (+/−0.2) in various concentrations (hereinbelow referred to as compositions PH1, PH2, etc.). The compositions B1, B2, etc. and PH1, PH2 etc. were each poured into Petri dishes and each inoculated with identical amounts of bacteria, fungi and yeasts. The minimum inhibitory concentration (MIC) is the concentration at which inhibition of the growth of the bacteria, fungi and yeasts in the compositions B1, B2, etc. and PH1, PH2, etc. occurs.
(§3) The minimum inhibitory concentrations for the pure substances isosorbide caprylate 1 and Octopirox® were determined analogously.
(§4) The values determined for the minimum inhibitory concentrations “MIC mixture”, stated in Table 1 below, are based on the concentrations of composition A.
(§5) The values determined for the minimum inhibitory concentrations “QA” and “QB”, stated in Table 1 below, have already been corrected for the dilution effect of the butyl polyglycol.
(§6) Kull et al., Applied Microbiology 1961, 9, 538 using the formula below: SE=Qa/QA+Qb/QB where • Qa is the minimum inhibitory concentration of isosorbide caprylate 1 in the mixture employed, • QA is the minimum inhibitory concentration of isosorbide caprylate 1, • Qb is the minimum inhibitory concentration of Octopirox® in the mixture employed and • QB is the minimum inhibitory concentration of Octopirox®.
(§7) The values for Qa and Qb are determined from the values for the mixtures (“MIC mixture”) by multiplying the minimum inhibitory concentrations determined for Qa with the factor 0.5 and for Qb with the factor 0.05, because of the proportions of the ingredients—50% by weight of isosorbide caprylate 1 and 50% by weight of a 10% by weight strength solution of Octopirox® in butyl polyglycol—in composition A according to the invention examined.
(§8) If an SE value>1 is obtained, an antagonistic effect is present.
as §1
(In general: In agar dilution, organisms are placed on agar that contains the substance at set levels.)

The subject of assay [4] is Aspergillus terreus. Briefly: Antimicrobial efficacy, MIC by agar dilution. Format: cell-based. The note with it: Sabouraud 4% dextrose agar pH 5.6.
Text: as §2, §3, §4, §5, §6, §7, §8, §1

The test system of assay [5] is Candida albicans. Briefly: Antimicrobial efficacy, MIC by agar dilution. Conditions: Sabouraud 4% dextrose agar pH 5.6. Format: cell-based.
Text: as §2, §3, §4, §5, §6, §7, §8, §1

Assay [6] relates to Citrobacter freundii. Briefly: Antimicrobial efficacy, MIC by agar dilution. It is filed as cell-based. The note with it: CASO agar pH 7.
Text: as §2, §3, §4, §5, §6, §7, §8, §1

The subject of assay [7] is Enterobacter aerogenes. Briefly: Antimicrobial efficacy, MIC by agar dilution. Format: cell-based. The note with it: CASO agar pH 7.
Text: as §2, §3, §4, §5, §6, §7, §8, §1

In assay [8] the test system is Escherichia coli. Briefly: Antimicrobial efficacy, MIC by agar dilution. The note with it: CASO agar pH 7. Format: cell-based.
Text: as §2, §3, §4, §5, §6, §7, §8, §1

In assay [9] the test system is Fusarium solani. Briefly: Antimicrobial efficacy, MIC by agar dilution. Format: cell-based. Conditions: Sabouraud 4% dextrose agar pH 5.6.
Text: as §2, §3, §4, §5, §6, §7, §8, §1

Assay [10] deals with Klebsiella pneumoniae. Description: Antimicrobial efficacy, MIC by agar dilution. Conditions: CASO agar pH 7. Format: cell-based.
Text: as §2, §3, §4, §5, §6, §7, §8, §1

Assay [11] deals with Penicillium funicolosium. Description: Antimicrobial efficacy, MIC by agar dilution. It is filed as cell-based. The note with it: Sabouraud 4% dextrose agar pH 5.6.
Text: as §2, §3, §4, §5, §6, §7, §8, §1

Assay [12] relates to Penicillium minioluteum. Description: Antimicrobial efficacy, MIC by agar dilution. Format: cell-based. Conditions: Sabouraud 4% dextrose agar pH 5.6.
Text: as §2, §3, §4, §5, §6, §7, §8, §1

Assay [13] deals with Proteus vulgaris. Description: Antimicrobial efficacy, MIC by agar dilution. It is filed as cell-based. The note with it: CASO agar pH 7.
Text: as §2, §3, §4, §5, §6, §7, §8, §1

Assay [14] concerns Pseudomonas aeruginosa. Description: Antimicrobial efficacy, MIC by agar dilution. Format: cell-based. The note with it: CASO agar pH 7.
Text: as §2, §3, §4, §5, §6, §7, §8, §1

For assay [15], the system named is Pseudomonas oleovorans. Briefly: Antimicrobial efficacy, MIC by agar dilution. It is filed as cell-based. Conditions: CASO agar pH 7.
Text: as §2, §3, §4, §5, §6, §7, §8, §1

In assay [16] the test system is Staphylococcus aureus. Description: Antimicrobial efficacy, MIC by agar dilution. It is filed as cell-based. Conditions: CASO agar pH 7.
Text: as §2, §3, §4, §5, §6, §7, §8, §1

Setting [17] is: MIC of Octopirox alone, corrected for butyl polyglycol dilution.
Where [18] appears, read: MIC of Octopirox in the mixture (MIC mixture x 0.05).

With isosorbide monocaprylate, the “antimicrobial activity (concluded)” value in assay [1] (concluded from QA of isosorbide caprylate 1 and inactivity of its other constituents) was “significant antimicrobial activity”.

As to `O[C@@H]1CO[C@H]2[C@@H]1OC[C@@H]2O` [isosorbide], the “antimicrobial activity (summary of Table 2)” value in assay [1] (all bacteria, fungi and yeasts of Table 2) was “neither isosorbide nor isosorbide dicaprylate are antimicrobially active”.

On to `CCCCCCCC(=O)O` [caprylic acid], for which, in [2], the antimicrobial efficacy entry was “antimicrobially effective”. In [2] (pH of 6 or above), the “antimicrobial activity at a pH of 6 or above” value is “no antimicrobial activity”.

For `Cc1cc(CC(C)CC(C)(C)C)n(O)c(=O)c1.NCCO` (centres unmarked) [Octopirox®, monoethanolamine salt of 4-methyl-6-(2,4,4-trimethylpentyl)-1-hydroxy-2-pyridone], the “OB, meas.” value in assay [3] (setting [17]) was 20 ppm; in assay [4] (setting [17]) it was 20 ppm; in assay [5] (setting [17]), 20 ppm; in assay [6] (setting [17]), 50 ppm; in [7] (setting [17]), 100 ppm; in assay [8] (setting [17]), 25 ppm. Moreover, the “OB, meas.” value in assay [9] (setting [17]) came out at 20 ppm; in [10] (setting [17]) it was 50 ppm; in assay [11] (setting [17]) it was 20 ppm; in [12] (setting [17]), 20 ppm; in assay [13] (setting [17]), 25 ppm; in assay [14] (setting [17]), 25 ppm. Besides, the “OB, meas.” value in assay [15] (setting [17]) is given as 50 ppm; in assay [16] (setting [17]), 25 ppm. In addition, the “Ob, calc.” value is on record as 10 ppm in [3] (setting [18]); 10 ppm in assay [4] (setting [18]); 10 ppm in assay [5] (setting [18]); 25 ppm in [6] (setting [18]); 25 ppm in assay [7] (setting [18]); 25 ppm in assay [8] (setting [18]). The “Ob, calc.” value is listed as 10 ppm in assay [9] (setting [18]); 25 ppm in assay [10] (setting [18]); 10 ppm in assay [11] (setting [18]); 10 ppm in assay [12] (setting [18]); 12.5 ppm in assay [13] (setting [18]); 25 ppm in assay [14] (setting [18]). The “Ob, calc.” value in [15] (setting [18]) and in assay [16] (setting [18]) was 25 ppm in each case.
